Assay results taken from patent US20240228535A1 (priority 2022, published 2024).

molecular target: SARS2 coronavirus 3CL protease (Severe acute respiratory syndrome coronavirus 2, UniProt P0DTD1); test: biochemical; details: 5 nM enzyme, 30 min pre-incubation with compound, 15 μM peptide substrate, 4 h at room temperature; read-out: FRET Potency (nM); IC50 values in the SARS2 3CLPro FRET assay

Which IC50 does the source give for `COC(=O)Nc1ccc(Cl)cc1C(=O)N[C@@H](C[C@@H]1C[C@@H](C)NC1=O)C(=O)C(=O)NC1CC1` [Example 101, methyl N-[4-chloro-2-[(1S)-3-(cyclopropylamino)-1-[[(3S,5R)-5-methyl-2-oxo-pyrrolidin-3-yl]methyl]-2,3-dioxo-propyl]carbamoyl]phenyl] carbamate] here?
The IC50 was 7.8 nM.

With `O=C(NC1CC1)C(=O)[C@H](C[C@@H]1CCNC1=O)NC(=O)c1cc(Cl)ccc1NC(=O)C1CC(F)(F)C1` [Example 63, 5-chloro-N-[(1S)-3-(cyclopropylamino)-2,3-dioxo-1-[[(3S)-2-oxopyrrolidin-3-yl]methyl]propyl]-2-[(3,3-difluorocyclobutanecarbonyl)amino]benzamide] as the compound, how does the IC50 read?
The IC50 was 7.3 nM.

With `O=C(NC1CC1)C(=O)[C@H](C[C@@H]1CCNC1=O)NC(=O)c1cc(Cl)ccc1NC(=O)C12CC(F)(C1)C2` [Example 30, N-[4-chloro-2-[[(1S)-3-(cyclopropylamino)-2,3-dioxo-1-[[(3S)-2-oxopyrrolidin-3-yl]methyl]propyl]carbamoyl]phenyl]-3-fluoro-bicyclo[1.1.1]pentane-1-carboxamide] as the compound, how does the IC50 read?
Its IC50 is 12.9 nM.

How did the IC50 turn out when `CNC(=O)C(=O)[C@H](C[C@@H]1C[C@@H](C)NC1=O)NC(=O)c1cc(Cl)ccc1NC(=O)C1CC1(F)F` (single isomer, unassigned) [Example 60] was run?
The IC50 was 7.9 nM.

Which IC50 does the source give for `C[C@@H]1C[C@@H](C[C@H](NC(=O)c2cc(Cl)ccc2NC(=O)CCC(F)(F)F)C(=O)C(=O)NCc2ccccc2)C(=O)N1` [Example 115, N—((S)-4-(benzylamino)-1-((3S,5R)-5-methyl-2-oxopyrrolidin-3-yl)-3,4-dioxobutan-2-yl)-5-chloro-2-(4,4,4-trifluorobutanamido)benzamide] here?
The IC50 was 11.5 nM.

How did the IC50 turn out when `C[C@@H]1C[C@@H](C[C@H](NC(=O)c2cc(C(F)(F)F)ccc2NC(=O)c2cccc(C(F)(F)F)c2)C(=O)C(=O)NC2CC2)C(=O)N1` [Example 64, N-[(1S)-3-(cyclopropylamino)-1-[[(3S,5R)-5-methyl-2-oxo-pyrrolidin-3-yl]methyl]-2,3-dioxo-propyl]-5-(trifluoromethyl)-2-[[3-(trifluoromethyl)benzoyl]amino]benzamide] was run?
Its IC50 is 7.3 nM.

For `C[C@@H]1C[C@@H](C[C@H](NC(=O)c2cc(Cl)ccc2NC(=O)CCC(F)(F)F)C(=O)C(=O)NCCO)C(=O)N1` [Example 117, 5-chloro-N-[(1S)-3-(2-hydroxyethylamino)-1-[[(3S,5R)-5-methyl-2-oxo-pyrrolidin-3-yl]methyl]-2,3-dioxo-propyl]-2-(4,4,4-trifluorobutanoylamino) benzamide], which IC50 is on record?
Its IC50 is 9.3 nM.

`O=C(NC1CC1)C(=O)[C@H](C[C@@H]1CCNC1=O)NC(=O)c1cc(Cl)ccc1NC(=O)c1ccnc(C(F)(F)F)c1` [Example 75, N-[4-chloro-2-[[(1S)-3-(cyclopropylamino)-2,3-dioxo-1-[[(3S)-2-oxopyrrolidin-3-yl]methyl]propyl]carbamoyl]phenyl]-2-(trifluoromethyl)pyridine-4-carboxamide] was tested. Which IC50 did it give?
The IC50 was 6 nM.

`C[C@@H]1C[C@@H](C[C@H](NC(=O)c2cc(Cl)ccc2NC(=O)C2CC2C(F)(F)F)C(=O)C(=O)NC2CC2)C(=O)N1` (stereo partly drawn) [Example 84, 5-chloro-N-[(1S)-3-(cyclopropylamino)-1-[[(3S,5R)-5-methyl-2-oxo-pyrrolidin-3-yl]methyl]-2,3-dioxo-propyl]-2-[[2-(trifluoromethyl)cyclopropane-carbonyl]amino]benzamide] was tested. Which IC50 did it give?
Its IC50 is 20.6 nM.

How did the IC50 turn out when `CNC(=O)C(=O)[C@H](C[C@@H]1CCNC1=O)NC(=O)c1cc(F)ccc1NC(=O)c1ccnc(C(F)(F)F)c1` [Example 196, N-[4-fluoro-2-[[(1S)-3-(methylamino)-2,3-dioxo-1-[[(3S)-2-oxopyrrolidin-3-yl]methyl]propyl]carbamoyl]phenyl]-2-(trifluoromethyl)pyridine-4-carboxamide] was run?
Its IC50 is 7.6 nM.

With `CNC(=O)C(=O)[C@H](C[C@@H]1C[C@@H](C)NC1=O)NC(=O)c1cc(Cl)ccc1NC(=O)C1CCC(F)(F)CC1` [Example 197] as the compound, how does the IC50 read?
Its IC50 is 9.4 nM.

`CNC(=O)C(=O)[C@H](C[C@@H]1C[C@@H](C)NC1=O)NC(=O)c1cc(Cl)ccc1NC(=O)C1CN(C)C1` [Example 149, N-[4-chloro-2-[[(1S)-3-(methylamino)-1-[[(3S,5R)-5-methyl-2-oxo-pyrrolidin-3-yl]methyl]-2,3-dioxo-propyl]carbamoyl]phenyl]-1-methyl-azetidine-3-carboxamide] was tested. Which IC50 did it give?
The IC50 was 10.8 nM.

For `O=C(NC1CC1)C(=O)[C@H](C[C@@H]1CCNC1=O)NC(=O)c1cc(Cl)ccc1NC(=O)C(F)(F)F` [Example 51, 5-chloro-N-[(1S)-3-(cyclopropylamino)-2,3-dioxo-1-[[(3S)-2-oxopyrrolidin-3-yl]methyl]propyl]-2-[(2,2,2-trifluoroacetyl)amino] benzamide], which IC50 is on record?
The IC50 was 8.6 nM.

Which IC50 does the source give for `CNC(=O)C(=O)[C@H](C[C@@H]1C[C@@H](C)NC1=O)NC(=O)c1cc(C(F)F)ccc1NC(=O)c1cccc(C(F)(F)F)c1` [Example 70, 5-(difluoromethyl)-N-[(1S)-3-(methylamino)-1-[[(3S,5R)-5-methyl-2-oxo-pyrrolidin-3-yl]methyl]-2,3-dioxo-propyl]-2-[[3-(trifluoromethyl)benzoyl]amino]benzamide] here?
Its IC50 is 6.9 nM.

How did the IC50 turn out when `CNC(=O)C(=O)[C@H](C[C@@H]1C[C@@H](C(F)(F)F)NC1=O)NC(=O)c1cc(Cl)cnc1NC(=O)c1cccc(C(F)(F)F)c1` [Example 43, 5-chloro-N-[(1S)-3-(methylamino)-2,3-dioxo-1-[[(3R,5S)-2-oxo-5-(trifluoromethyl)pyrrolidin-3-yl]methyl]propyl]-2-[[3-(trifluoromethyl)benzoyl]amino]pyridine-3-carboxamide] was run?
Its IC50 is 9.6 nM.

How did the IC50 turn out when `CNC(=O)C(=O)[C@H](C[C@@H]1C[C@@H](C)NC1=O)NC(=O)c1cc(Cl)ccc1NC(=O)C1CCCC1(F)F` (stereo partly drawn) [Example 184, 5-chloro-2-[(2,2-difluorocyclopentanecarbonyl)amino]-N-[(1S)-3-(methylamino)-1-[[(3S,5R)-5-methyl-2-oxo-pyrrolidin-3-yl]methyl]-2,3-dioxo-propyl]benzamide] was run?
The IC50 was 13.5 nM.

For `C[C@@H]1C[C@@H](C[C@H](NC(=O)c2cc(Cl)ccc2NC(=O)[C@H](C)CC(F)(F)F)C(=O)C(=O)NC2CC2)C(=O)N1` [Example 209, 5-chloro-N-[(1S)-3-(cyclopropylamino)-1-[[(3S,5R)-5-methyl-2-oxo-pyrrolidin-3-yl]methyl]-2,3-dioxo-propyl]-2-[[(2R)-4,4,4-trifluoro-2-methyl-butanoyl]amino]benzamide], which IC50 is on record?
The IC50 was 9.8 nM.

For `CNC(=O)C(=O)[C@H](C[C@@H]1CCNC1=O)NC(=O)c1cc(Cl)ccc1NC(=O)C1(C(F)(F)F)CC1` [Example 81, 5-chloro-N-[(1S)-3-(methylamino)-2,3-dioxo-1-[[(3S)-2-oxopyrrolidin-3-yl]methyl]propyl]-2-[[1-(trifluoromethyl)cyclopropane-carbonyl]amino]benzamide], which IC50 is on record?
The IC50 was 15.9 nM.

With `CNC(=O)C(=O)[C@H](C[C@@H]1CCNC1=O)NC(=O)c1cc(Cl)ccc1NC(=O)OCc1ccccc1` [Example 174] as the compound, how does the IC50 read?
The IC50 was 6.5 nM.

With `C[C@@H]1C[C@@H](C[C@H](NC(=O)c2cc(Cl)ccc2NC(=O)C2(CC(F)(F)F)CC2)C(=O)C(=O)NC2CC2)C(=O)N1` [Example 62] as the compound, how does the IC50 read?
Its IC50 is 7.6 nM.

How did the IC50 turn out when `O=C(Nc1ccc(Cl)cc1C(=O)N[C@@H](C[C@@H]1CCNC1=O)C(=O)C(=O)NC1CC1)OCC1CC1` [Example 162, cyclopropylmethyl N-[4-chloro-2-[[(1S)-3-(cyclopropylamino)-2,3-dioxo-1-[[(3S)-2-oxopyrrolidin-3-yl]methyl]propyl]carbamoyl]phenyl]carbamate] was run?
The IC50 was 7.5 nM.
